# Reference: ChEMBL document CHEMBL6074686 (Eur J Med Chem, 2025)
# Calls of active or inactive are those of the source. The rule behind the calls is not given here.
# Assays:
# SK-OV-3 [1] = assay: Antitumor activity against human SK-OV-3 cells xenografted xenografted in female BALB/c nude mouse assessed as downregulation of CD-31 expression level in tumor at 10 mg/kg, […] via tail vein once every 2 to 3 days by immunohistochemistry analysis; format: functional, organism-based; settings: time 2-3 day
# SK-OV-3 [2] = assay: Inhibition of cell migration in human SK-OV-3 cells assessed as ratio of migrated cells at 1.25 nM incubated for 24 hrs by Transwell assay (reference value: 100 %); format: functional; set-up: scale not given: the % may be the effect or the level left
# MCF7 [3] = assay: Inhibition of cell migration in human MCF7 cells assessed as wound closure ratio at 5 nM incubated for 24 hrs by wound healing assay (reference value: 100%); format: functional; set-up: scale not given: the % may be the effect or the level left
# SK-OV-3 [4] = assay: Antitumor activity against human SK-OV-3 cells xenografted xenografted in female BALB/c nude mouse assessed as downregulation of Bcl-2 expression level in tumor at 5 to 10 mg/kg, […] via tail vein once every 2 to 3 days by immunohistochemistry analysis; format: functional, organism-based; settings: dose 5-10 mg/kg, time 2-3 day
# [5] = Toxicity in female BALB/c nude mouse xenografted with human SK-OV-3 cells assessed as drug tolerance by measuring body weight loss at 30 mg/kg, administered via tail vein for 5 days and measured daily; format: organism-based; settings: in vivo, iv, 120 h, time 5 day
# Tubulin (Homo sapiens) = Tubulin (Homo sapiens) (UniProt P68371+Q9H4B7+P0DPH7+P68366+Q13509+Q71U36+P04350+Q3ZCM7+P07437+P68363+Q9BQE3+Q6PEY2+Q13885+Q9BVA1+Q9BUF5); assay: Inhibition of tubulin polymerization (unknown origin) assessed as reduction in optical density at 340 nm at 20 uM relative to control; format: protein-complex assay
# SK-OV-3 [6] = assay: Inhibition of cell migration in human SK-OV-3 cells assessed as reduction in wound closure at 25 nM incubated for 24 hrs by wound healing assay (reference value: 21.8 +/- 7.6%); format: functional; settings: SK-OV-3, 24 h, values are per cent of control
# MCF7 [7] = assay: Inhibition of cell migration in human MCF7 cells assessed as ratio of migrated cells at 12.5 nM incubated for 24 hrs by crystal violet staining based inverted microscopic analysis (reference value: 100%); format: functional; set-up: scale not given: the % may be the effect or the level left
# MCF7 [8] = assay: Inhibition of colony formation in human MCF7 cells at 25 nM incubated for 72 hrs by crystal violet staining based assay relative to control; format: functional
# [9] = Toxicity in female BALB/c nude mouse xenografted with human SK-OV-3 cells assessed as pathological changes in liver at 5 to 10 mg/kg, […] via tail vein once every 2 to 3 days by H and E staining based analysis; format: organism-based; settings: in vivo, dose lower 5 mg/kg, time lower 2 day, dose upper 10 mg/kg, time upper 3 day
# MCF7 [10] = assay: Inhibition of cell migration in human MCF7 cells assessed as wound closure ratio at 1.25 nM incubated for 24 hrs by wound healing assay (reference value: 100%); format: functional; set-up: scale not given: the % may be the effect or the level left
# SK-OV-3 [11] = assay: Induction of cell cycle arrest in human SK-OV-3 cells assessed as increase in G2/M phase cells incubated for 24 hrs PI staining based flow cytometric analysis; format: functional; settings: dose 2.5-40 nM
# SK-OV-3 [12] = assay: Inhibition of cell migration in human SK-OV-3 cells assessed as area of migrated cells at 1.25 nM incubated for 24 hrs by crystal violet staining based inverted microscopic analysis (reference value: 30.1 +/- 1.3 mm^3); format: functional
# SK-OV-3 [13] = assay: Induction of apoptosis in human SK-OV-3 cells assessed as upregulation of cleaved-PARP expression at 25 to 50 nM incubated for 24 hrs by Western blotting analysis; format: functional, cell-based; settings: dose 25-50 nM
# SK-OV-3 [14] = assay: Induction of cell cycle arrest in human SK-OV-3 cells assessed as upregulation of Cyclin-B1 expression at 25 to 50 nM incubated for 24 hrs by Western blotting analysis; format: functional, cell-based; settings: dose 25-50 nM
# MCF7 [15] = assay: Inhibition of cell migration in human MCF7 cells assessed as area of migrated cells at 12.5 nM incubated for 24 hrs by crystal violet staining based inverted microscopic analysis (reference value: 18.5 +/- 0.3 mm^3); format: functional
# SK-OV-3 [16] = assay: Inhibition of cell migration in human SK-OV-3 cells assessed as area of migrated cells at 20 nM incubated for 24 hrs by crystal violet staining based inverted microscopic analysis (reference value: 30.1 +/- 1.3 mm^3); format: functional
# SK-OV-3 [17] = assay: Inhibition of colony formation in human SK-OV-3 cells at 2.5 nM incubated for 12 days by crystal violet staining based assay relative to control; format: functional; settings: SK-OV-3, 288 h, time 12 day
# MCF7 [18] = assay: Inhibition of cell migration in human MCF7 cells assessed as area of migrated cells at 50 nM incubated for 24 hrs by crystal violet staining based inverted microscopic analysis (reference value: 18.5 +/- 0.3 mm^3); format: functional
# MCF7 [19] = assay: Inhibition of cell migration in human MCF7 cells assessed as ratio of migrated cells at 50 nM incubated for 24 hrs by crystal violet staining based inverted microscopic analysis (reference value: 100%); format: functional; set-up: scale not given: the % may be the effect or the level left
# SK-OV-3 [20] = assay: Induction of apoptosis in human SK-OV-3 cells assessed as upregulation of Bax expression at 100 nM incubated for 24 hrs by Western blotting analysis; format: functional, cell-based
# SK-OV-3 [21] = assay: Antitumor activity against human SK-OV-3 cells assessed as reduction in cell viability incubated for 72 hrs by CCK8 assay; format: functional, cell-based; settings: SK-OV-3, 72 h
# SK-OV-3 [22] = assay: Induction of apoptosis in human SK-OV-3 cells assessed as upregulation of Bcl-2 expression at 100 nM incubated for 24 hrs by Western blotting analysis; format: functional, cell-based
# MCF7 [23] = assay: Inhibition of cell migration in human MCF7 cells assessed as increase in cell density at 20 nM incubated for 24 hrs by wound healing assay; format: functional, cell-based
# SK-OV-3 [24] = assay: Antitumor activity against human SK-OV-3 cells xenografted in female BALB/c nude mouse assessed as tumor growth inhibition at 5 mg/kg, […] via tail vein once every 2 to 3 days; format: functional; settings: time 2-3 day, read-out: TGI
# A549 = assay: Induction of cell cycle arrest in human A549 cells assessed as accumulation of cells at G2/M phase at 40 nM incubated for 24 hrs by PI staining based flow cytometric analysis relative to control; format: functional
# SK-OV-3 [25] = assay: Inhibition of cell migration in human SK-OV-3 cells assessed as wound closure ratio at 25 nM incubated for 24 hrs by wound healing assay (reference value: 100%); format: functional; set-up: scale not given: the % may be the effect or the level left
# SK-OV-3 [26] = assay: Induction of cell cycle arrest in human SK-OV-3 cells assessed as increase in G2/M phase cells at 10 nM incubated for 24 hrs PI staining based flow cytometric analysis (reference value: 24.6 +/- 2.0%); format: functional
# SK-OV-3 [27] = assay: Induction of apoptosis in human SK-OV-3 cells assessed as downregulation of cleaved-PARP expression at 100 nM incubated for 24 hrs by Western blotting analysis; format: functional, cell-based
# SK-OV-3 [28] = assay: Inhibition of cell migration in human SK-OV-3 cells assessed as wound closure ratio at 6.25 nM incubated for 24 hrs by wound healing assay (reference value: 100%); format: functional; set-up: scale not given: the % may be the effect or the level left
# SK-OV-3 [29] = assay: Induction of cell cycle arrest in human SK-OV-3 cells assessed as decrease in Cyclin-B1 expression at 100 nM incubated for 24 hrs by Western blotting analysis; format: functional, cell-based
# SK-OV-3 [30] = assay: Induction of cell cycle arrest in human SK-OV-3 cells assessed as upregulation of Cdc-2 expression at 25 to 50 nM incubated for 24 hrs by Western blotting analysis; format: functional, cell-based; settings: dose 25-50 nM
structure (smiles),measurement,setting,value
CNc1nc(N2CCCc3cc(OC)ccc32)c2cc(F)ccc2n1,Activity,SK-OV-3 [1],Active
same,Activity,SK-OV-3 [2],72.3%
same,Activity,MCF7 [3],97.3%
same,Activity,SK-OV-3 [4],Active
same,Activity,[5],Toxic
same,inhibition,Tubulin (Homo sapiens),100%
same,"response, % of control at 0.025 µM",SK-OV-3 [6],11.2%
same,Activity,MCF7 [7],60.4%
same,inhibition at 0.025 µM,MCF7 [8],32.8%
same,Activity,[9],Non-toxic
same,Activity,MCF7 [10],105.5%
same,Activity,SK-OV-3 [11],Dose-dependent-effect
same,Activity,SK-OV-3 [12],21.7 mm3
same,Activity,SK-OV-3 [13],Active
same,Activity,SK-OV-3 [14],inactive
same,Activity,MCF7 [15],11.2 mm3
same,Activity,SK-OV-3 [16],3.6 mm3
same,inhibition at 0.0025 µM,SK-OV-3 [17],56.2%
same,Activity,MCF7 [18],2.2 mm3
same,Activity,MCF7 [19],11.7%
same,Activity,SK-OV-3 [20],Active
same,IC50,SK-OV-3 [21],0.8 nM
same,Activity,SK-OV-3 [22],inactive
same,inhibition,MCF7 [23],Active; Increase In Cell Density Was Notably Slowed Down
same,inhibition in vivo at 5 mg/kg,SK-OV-3 [24],34.1%
same,Activity,A549,88.8%
same,Activity,SK-OV-3 [25],51.4%
same,Activity,SK-OV-3 [26],64.5%
same,Activity,SK-OV-3 [27],inactive
same,Activity,SK-OV-3 [28],84.3%
same,Activity,SK-OV-3 [29],Active
same,Activity,SK-OV-3 [30],Active
